Measured values as given in the NIST ThermoML archive (doi:10.1016/j.jct.2017.03.006).
Numbers after ± are expanded uncertainties.

Assay: xn = mol fraction of the nth substance listed
Conditions: Liquid; for mass density: 293.15 K, Vibrating tube method; for viscosity: Concentric cylinders viscometry

Cc1ccc(C)c(C)c1 [1,2,4-trimethylbenzene] + CCCCO
mass density [kg/m3]
Conditions | x2 = 0 | x2 = 0.1005 | x2 = 0.2261 | x2 = 0.2999 | x2 = 0.3966 | x2 = 0.5289 | x2 = 0.6367 | x2 = 0.7249 | x2 = 0.7977 | x2 = 0.9131
100 kPa | – | – | – | 859.9 ± 0.7 | 854.5 ± 0.7 | 846.5 ± 0.7 | 839.4 ± 0.7 | 833.1 ± 0.7 | 827.5 ± 0.7 | 817.8 ± 0.7
1000 kPa | 875.7 ± 0.7 | 870.8 ± 0.7 | 864.3 ± 0.7 | 860.4 ± 0.7 | 855 ± 0.7 | 847.1 ± 0.7 | 840 ± 0.7 | 833.7 ± 0.7 | 828.1 ± 0.7 | 818.4 ± 0.7
5000 kPa | 878.2 ± 0.7 | 873.4 ± 0.7 | 867 ± 0.7 | 863.1 ± 0.7 | 857.8 ± 0.7 | 849.8 ± 0.7 | 842.8 ± 0.7 | 836.5 ± 0.7 | 831 ± 0.7 | 821.3 ± 0.7
10000 kPa | 881.4 ± 0.7 | 876.6 ± 0.7 | 870.2 ± 0.7 | 866.4 ± 0.7 | 861.1 ± 0.7 | 853.1 ± 0.7 | 846.1 ± 0.7 | 839.9 ± 0.7 | 834.3 ± 0.7 | 824.7 ± 0.7
20000 kPa | 887.3 ± 0.7 | 882.6 ± 0.7 | 876.2 ± 0.7 | 872.5 ± 0.7 | 867.2 ± 0.7 | 859.4 ± 0.7 | 852.3 ± 0.7 | 846.2 ± 0.7 | 840.6 ± 0.7 | 831.1 ± 0.7
30000 kPa | 892.9 ± 0.7 | 888.3 ± 0.7 | 881.9 ± 0.7 | 878.2 ± 0.7 | 873 ± 0.7 | 865.2 ± 0.7 | 858.2 ± 0.7 | 852.1 ± 0.7 | 846.5 ± 0.7 | 837.1 ± 0.8
40000 kPa | 898.2 ± 0.7 | 893.7 ± 0.7 | 887.4 ± 0.7 | 883.6 ± 0.7 | 878.5 ± 0.7 | 870.7 ± 0.8 | 863.7 ± 0.8 | 857.6 ± 0.8 | 852.1 ± 0.8 | 842.7 ± 0.8
50000 kPa | 903.2 ± 0.7 | 898.7 ± 0.7 | 892.4 ± 0.8 | 888.8 ± 0.8 | 883.6 ± 0.8 | 875.8 ± 0.8 | 868.9 ± 0.8 | 862.8 ± 0.8 | 857.3 ± 0.8 | 847.9 ± 0.8
60000 kPa | 908 ± 0.8 | 903.5 ± 0.8 | 897.3 ± 0.8 | 893.6 ± 0.8 | 888.6 ± 0.8 | 880.8 ± 0.8 | 873.8 ± 0.8 | 867.8 ± 0.8 | 862.3 ± 0.8 | 852.9 ± 0.8
70000 kPa | 912.6 ± 0.8 | 908.3 ± 0.8 | 901.9 ± 0.8 | 898.4 ± 0.8 | 893.2 ± 0.8 | 885.5 ± 0.8 | 878.6 ± 0.8 | 872.6 ± 0.8 | 867 ± 0.8 | 857.7 ± 0.8
80000 kPa | 916.9 ± 0.8 | 912.6 ± 0.8 | 906.4 ± 0.8 | 902.8 ± 0.8 | 897.6 ± 0.8 | 890 ± 0.8 | 883 ± 0.8 | 877 ± 0.8 | 871.6 ± 0.8 | 862.3 ± 0.8
90000 kPa | 921.1 ± 0.8 | 916.8 ± 0.8 | 910.6 ± 0.8 | 907 ± 0.8 | 901.9 ± 0.8 | 894.2 ± 0.8 | 887.4 ± 0.8 | 881.3 ± 0.8 | 875.9 ± 0.8 | 866.6 ± 0.9
100000 kPa | 925.1 ± 0.8 | 920.8 ± 0.8 | 914.7 ± 0.8 | 911.1 ± 0.8 | 906 ± 0.8 | 898.4 ± 0.8 | 891.5 ± 0.8 | 885.4 ± 0.9 | 880 ± 0.9 | 870.7 ± 0.9
120000 kPa | 932.8 ± 0.8 | 928.6 ± 0.8 | 922.5 ± 0.8 | 918.9 ± 0.8 | 913.9 ± 0.8 | 906.2 ± 0.8 | 899.3 ± 0.9 | 893.3 ± 0.9 | 887.9 ± 0.9 | 878.7 ± 0.9
140000 kPa | 939.9 ± 0.8 | 935.6 ± 0.8 | 929.8 ± 0.8 | 926 ± 0.8 | 921.1 ± 0.8 | 913.5 ± 0.9 | 906.7 ± 0.9 | 900.7 ± 0.9 | 895.4 ± 0.9 | 886.1 ± 0.9

viscosity [mPa·s], 100 kPa
Conditions | x2 = 0 | x2 = 0.1002 | x2 = 0.2327 | x2 = 0.3 | x2 = 0.3969 | x2 = 0.53 | x2 = 0.637 | x2 = 0.7975 | x2 = 0.9131
303.15 K | 0.779 ± 0.017 | 0.783 ± 0.017 | 0.818 ± 0.017 | 0.857 ± 0.018 | 0.919 ± 0.019 | 1.049 ± 0.022 | 1.203 ± 0.025 | 1.559 ± 0.032 | 1.916 ± 0.039
313.15 K | 0.692 ± 0.015 | 0.69 ± 0.015 | 0.716 ± 0.015 | 0.744 ± 0.016 | 0.787 ± 0.017 | – | – | – | –
